The subject of one series is S. aureus ATCC 25923. In words: MIC determination (microdilution), S. aureus ATCC 25923. To be noted: Staphylococcus aureus. In kind it is cell-based, Staphylococcus aureus. The method, then:
(§1) Determination of MIC values, i.e., intrinsic antibacterial activity, of products and antibiotics (oxacillin, ampicillin, vancomycin, ciprofloxacin, and erythromycin) in the presence and absence of compounds tested was conducted by the use of a standard 2-fold microdilution method in cation-adjusted Mueller Hinton broth following the Clinical and Laboratory Standards Institute (CLSI) guidelines. The MIC values were detected using an Infinite M200 pro Tecan microplate reader (Tecan® France, SA-Lyon, France). MIC determinations were conducted in 96-well microtiter plates and repeated 3–4 times.
(§2) Initially, MICs of a series of imidazolone derivatives were assessed against susceptible (reference) and MDR strains of staphylococci. Next, MIC values of the aforementioned antibiotics were determined in the absence and presence of imidazolone derivatives to assess the chemosensitizing effect of these compounds. […] 5-arylideneimidazolones and 5-arylidenethiazolones, which precipitated after addition to bacterial suspension in MH II medium, were tested at the highest concentrations at which precipitation was not observed. […] Antibacterial activity of compounds and antibiotics ampicillin, vancomycin, ciprofloxacin, and erythromycin was recorded as the lowest concentration of molecules able to inhibit bacterial growth after 18 h incubation at 37 °C. The incubation of bacterial strains exposed to oxacillin paired with compounds tested was conducted at 35 °C and extended to 24 h due to frequent occurrence of heterogeneity among MRSA strains. The results are presented as activity gain (A) parameter which was calculated as ratio of MIC of a certain antibiotic (MICAnt) to its MICAnt+Comp, observed in combination with a tested compound (7, 12–16, 19, or 20; Equation (1)). (1) A=(MICAnt/MICAnt+Comp)
(Dilution methods test growth across graded concentrations, often in twofold steps.)

Another series concerns MRSA 19449. Description: MIC determination (microdilution), MRSA 19449. As to conditions: Staphylococcus aureus, MRSA, no precipitation. In kind it is cell-based, Staphylococcus aureus. As for the experimental part:
as §1, §2

The test system of a further series is S. aureus MM-N072. In words: MIC of compounds, S. aureus MM-N072. In kind it is cell-based. To be noted: Staphylococcus aureus; MM-N072 (MSSA). As for the experimental part:
Compounds 14–16 were tested further for their adjuvant-like effect with a set of ten additional S. aureus isolates. Firstly, MIC values of the molecules were evaluated in two clinical MSSA isolates (MM-O058, MM-N072), seven MRSA (USA300 LAC, 5328, LG-N017, MM-O021, R45-CC45, R46-CC22, COL) and one VISA strain (Mu50). Detailed results are presented in the Supplementary section (Table S3).
as §1
as §2, with “The incubation of bacterial strains exposed to oxacillin paired with compounds tested was conducted at 35 °C and extended to 24 h due to frequent occurrence of heterogeneity among MRSA strains.” left out, “(1) A=(MICAnt/MICAnt+Comp)” left out

For the next series, the system named is S. aureus USA300 LAC. In words: MIC reduction assay (antibiotic adjuvant), S. aureus USA300 LAC. Set-up: key: A = MIC of antibiotic alone / MIC with compound. The format is cell-based, Staphylococcus aureus.
Text: (§3) The adjuvant properties of compounds 14–16 in S. aureus clinical isolates were next tested in combination with oxacillin and the penicillinase-susceptible β-lactam antibiotic, ampicillin. The second β-lactam antibiotic was chosen based on its vulnerability to enzymatic hydrolysis, another important resistance mechanism in S. aureus against penicillin. Therefore, the results of the MIC reduction assay obtained on the activity of arylideneimidazolones combined with oxacillin and ampicillin, respectively, might provide further insights into the possible mechanism of action of the compounds. Complete results are presented in Supplementary (Tables S4 and S5), while condensed in Figure 6, in the case of desired activity noted. […] One possible explanation for the lack of adjuvant activity of compounds in some of the strains selected for this study might be that these strains express PBP2a only when induced by the antibiotic, while others, for which potentiating activity of compounds was observed, produce this protein in high levels straight away.
as §1, §2

The subject of the next series is S. aureus 5328. In words: MIC reduction assay (antibiotic adjuvant), S. aureus 5328. The format is cell-based, Staphylococcus aureus.
Text: as §3, §1, §2

Series [1] concerns K. aerogenes Ea-289 (overexpression of AcrAB-TolC). In words: MIC of compounds, K. aerogenes Ea-289. The format is cell-based. As to conditions: Klebsiella aerogenes. The method, then:
At first, MIC values of compounds were determined (Table S15, Supplementary). Next, their abilities to reduce MICs of the AcrAB-TolC substrates doxycycline (a tetracycline-class antibiotic) and erythromycin were studied (Table S16, Supplementary). […]
as §1
MIC values of 5-arylideneimidazolone derivatives were determined following CLSI recommendations as in the methods described for S. aureus (Section 3.3.1).

Series [2] can be described thus: Water solubility (UV spectroscopy). In kind it is physicochemical. An excerpt: Six representatives of 5-arylideneimidazolones (9–12, 15, 19) were chosen for the determination of water solubility. UV spectroscopy was used for the estimation of concentrations of compounds according to the method described earlier. Acquired UV absorbance, calculated means, and standard deviations for tested compounds are presented in Supplementary Table S18. Solubility results, presented in Table 6, point out that compounds from the same group (A or B, Table 1 and Table 2) with the two-ring aromatic moiety are more soluble than compounds with the fluorene motive (Group A: 9, 10, 11 vs. 12; Group B: 15 vs. 19). […] The most soluble of tested compounds was compound 15, which could be dissolved in water at a concentration of up to 205.502 mM/L.
Water solubility was obtained using UV spectroscopy method. Absorbance of tested solutions of compounds 9-12, 15, and 19, respectively in suitable dilution, in three repetitions as well as calculated arithmetic means, solubility and standard deviations are presented in Table S18. the solubility results […]
Table S18. Results of absorbance used for estimation of water solubility of tested compounds (9-12, 15, 19).
Abbreviations: A1, A2,and A3, UV absorbance in first, second, and third repetition; Amean, arithmetic mean of absorbance from three repetitions; s, standard deviation for absorbance; S, water solubility; SD – standard deviation for solubility. […]

[3] abbreviates: ATCC25923, unstarred values of column MIC value/no precipitation, read-out: MIC value.
The mark [4] stands for this setting: read-out: MIC value/no precipitation.
The mark [5] stands for this setting: read-out: Minimal Inhibitory Concentration (MIC).

“And” between values parts separate entries of the source, which are not always exact repeats. Identical values can stand only once. Like-named read-outs stand apart in the source and are kept apart here.

Four compounds from PMC7922564, “Molecular Insights into an Antibiotic Enhancer Action of New Morpholine-Containing 5-Arylideneimidazolones in the Fight against MDR Bacteria” (International Journal of Molecular Sciences, 2021) can be followed below.

For the compound `NC1=N/C(=C\c2ccc(-c3ccccc3)cc2)C(=O)N1CCCN1CCOCC1` [Compound 15], the MIC with S. aureus ATCC 25923 (ATCC25923, read-out: MIC value) was 125 µM; with S. aureus ATCC 25923 (setting [3]), 31.2 to 250 µM; in the series on MRSA 19449, 31.2 to 250 µM; in the series on S. aureus MM-N072, 250 µM; in series [1] (setting [4]), more than 250 µM; in series [1] (setting [5]), more than 2000 µM. In addition, the “A (activity gain)” value stood at 2 in the series on S. aureus USA300 LAC (ampicillin); 1 in the series on S. aureus USA300 LAC (ciprofloxacin); 1 in the series on S. aureus USA300 LAC (erythromycin); 2 with S. aureus 5328 (ampicillin); 1 with S. aureus 5328 (erythromycin, S. aureus 53284). Also, the solubility in series [2] was 87600 µg/mL and 206000 µM.

With `NC1=N/C(=C\c2ccc(-c3ccccc3)cc2)C(=O)N1CCN1CCOCC1` [Compound 14], the MIC was 31.2 to 250 µM in the series with S. aureus ATCC 25923 (setting [3]); 31.2 to 250 µM in the series with MRSA 19449; not below 500 µM in the series with S. aureus MM-N072; more than 250 µM in series [1] (setting [4]); more than 2000 µM in series [1] (setting [5]). Also, the “A (activity gain)” value in the series on S. aureus USA300 LAC (ampicillin) amounted to 1; with S. aureus USA300 LAC (ciprofloxacin) it was 1; in the series with S. aureus USA300 LAC (erythromycin), 1; in the series on S. aureus 5328 (ampicillin), 2; in the series on S. aureus 5328 (erythromycin, S. aureus 53284) it was 1.

With `NC1=N/C(=C\c2ccc3c(c2)Cc2ccccc2-3)C(=O)N1CCCN1CCOCC1` [Compound 19], the MIC with S. aureus ATCC 25923 (setting [3]) is 31.2 to 250 µM; with MRSA 19449, 31.2 to 250 µM; in series [1] (setting [4]), more than 250 µM; in series [1] (setting [5]), more than 2000 µM. Further, the solubility in series [2] was 8530 µg/mL and 19500 µM.

On to `NC1=N/C(=C\c2cccc(Oc3ccccc3)c2)C(=O)N1CCCN1CCOCC1` [Compound 16], for which the results for the MIC (with S. aureus ATCC 25923 (setting [3]); in the series on S. aureus MM-N072; in series [1] (setting [5])) were 31.2 to 250 µM, 250 µM and more than 2000 µM, respectively. For the same compound, the “A (activity gain)” value is 1 in the series on S. aureus USA300 LAC (ampicillin); 1 in the series with S. aureus USA300 LAC (ciprofloxacin); 1 in the series with S. aureus USA300 LAC (erythromycin); 1 in the series on S. aureus 5328 (ampicillin); 1 in the series on S. aureus 5328 (erythromycin, S. aureus 53284).

What is called solubility is how much of the substance goes into solution per volume.
